Source: patent publication US20230295182A1, “SPIRO DERIVATIVES OF ALPHA-D-GALACTOPYRANOSIDES” (Idorsia Pharmaceuticals Ltd, priority 2020, published 2023)

How the values were obtained:
human Gal-1 (hGal-1) = human Gal-1 (hGal-1) (Homo sapiens, UniProt P09382); assay: Competitive binding assay: biotinylated hGal-1 to microplate-adsorbed asialofetuin (ASF); settings: Activities on hGal-1; binding to ASF-coated plates, 3 hours at 4° C.; mean values; read-out: Gal-1 IC50
Method: Evaluation of Compound Inhibitory Activity (IC50) The inhibitory activity of compounds is determined in competitive binding assays. […] Alternatively, and preferably, a human Gal-1 version in which all six cysteines are substituted by serines may be used. Briefly, compounds are serially diluted in DMSO (working dilutions). […] Plates are incubated for 3 hours at 4° C., then washed with cold assay buffer (3×50 uL), incubated for 1 hour with 25 μL/well of a streptavidin-peroxidase solution (diluted in assay buffer to 80 ng/mL) at 4° C., followed by further washing steps with assay buffer (3×50 uL). Finally, 25 µL/well of ABTS substrate is added. […] The calculated IC50 values may fluctuate depending on the daily assay performance. Fluctuations of this kind are known to those skilled in the art. IC50 values from several measurements are given as mean values.

human Gal-3 (hGal-3) = human Gal-3 (hGal-3) (Homo sapiens (Human), UniProt P17931); assay: Competitive binding assay: biotinylated hGal-3 to microplate-adsorbed asialofetuin (ASF); settings: Activity on hGal-3; binding to ASF-coated plates, 3 hours at 4° C.; mean values
human Gal-3 (hGal-3), sequence (P17931 whole entry): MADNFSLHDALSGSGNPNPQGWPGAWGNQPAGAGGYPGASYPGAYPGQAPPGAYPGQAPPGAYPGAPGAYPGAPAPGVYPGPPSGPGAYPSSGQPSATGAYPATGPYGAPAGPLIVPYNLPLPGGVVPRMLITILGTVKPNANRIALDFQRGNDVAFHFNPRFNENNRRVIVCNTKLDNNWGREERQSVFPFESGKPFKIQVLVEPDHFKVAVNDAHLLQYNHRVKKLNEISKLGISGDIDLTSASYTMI
Method: Evaluation of Compound Inhibitory Activity (IC50)
The inhibitory activity of compounds is determined in competitive binding assays. This spectrophotometric assay measures the binding of biotinylated human Gal-3 (hGal-3) or human Gal-1 (hGal-1), respectively, to a microplate-adsorbed glycoprotein, asialofetuin (ASF) (Proc Natl Acad Sci USA. 2013 Mar. 26; 110(13):5052-7.). Alternatively, and preferably, a human Gal-1 version in which all six cysteines are substituted by serines may be used.
Briefly, compounds are serially diluted in DMSO (working dilutions). ASF-coated 384 well plates are supplemented with 22.8 μL/well of biotinylated hGal-3 or hGal-1 in assay buffer (i.e. 300-1000 ng/mL biotinylated hGal-3 or hGal-1) to which 1.2 µL of compound working dilutions are added and mixed.
Plates are incubated for 3 hours at 4° C., then washed with cold assay buffer (3×50 uL), incubated for 1 hour with 25 μL/well of a streptavidin-peroxidase solution (diluted in assay buffer to 80 ng/mL) at 4° C., followed by further washing steps with assay buffer (3×50 uL). Finally, 25 µL/well of ABTS substrate is added.
The calculated IC50 values may fluctuate depending on the daily assay performance. Fluctuations of this kind are known to those skilled in the art. IC50 values from several measurements are given as mean values.

human Gal-1 (hGal-1), sequence (P09382 2-135 limits assumed): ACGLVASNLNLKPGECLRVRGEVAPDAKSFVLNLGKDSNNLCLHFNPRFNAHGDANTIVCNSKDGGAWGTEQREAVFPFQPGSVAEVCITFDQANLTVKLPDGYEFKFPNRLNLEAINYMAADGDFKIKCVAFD

Row | Compound | IC50 (human Gal-1 (hGal-1)) [nM] | IC50 (human Gal-3 (hGal-3)) [nM]
1 | CO[C@@H]1[C@@H](n2cc(-c3ccc(C)c(F)c3F)nn2)[C@@H](O)[C@@H](CO)O[C@@H]1CN1CC2(CCCCC2)OC1=O [Example 3.02, 3-(((2R,3R,4S,5R,6R)-4-(4-(2,3-difluoro-4-methylphenyl)-1H-1,2,3-triazol-1-yl)-5-hydroxy-6-(hydroxymethyl)-3-methoxytetrahydro-2H-pyran-2-yl)methyl)-1-oxa-3-azaspiro[4.5]decan-2-one] | 1400 | 36
2 | CO[C@@H]1[C@@H](n2cc(-c3ccc(C)c(F)c3F)nn2)[C@@H](O)[C@@H](CO)O[C@@H]1CC1=NO[C@]2(CC[C@@H](C(C)(C)O)CC2)C1 [Example 1.63, (2R,3R,4S,5R,6R)-4-(4-(2,3-difluoro-4-methylphenyl)-1H-1,2,3-triazol-1-yl)-2-(hydroxymethyl)-6-(((5s,8S)-8-(2-hydroxypropan-2-yl)-1-oxa-2-azaspiro[4.5]dec-2-en-3-yl)methyl)-5-methoxytetrahydro-2H-pyran-3-ol] | 3400 | 180
3 | CO[C@@H]1[C@@H](n2cc(-c3cc(F)c(F)c(F)c3)nn2)[C@@H](O)[C@@H](CO)O[C@@H]1CC1=NOC2(CCC(C)(C)CC2)C1 [Example 1.29, (2R,3R,4S,5R,6R)-6-((8,8-dimethyl-1-oxa-2-azaspiro[4.5]dec-2-en-3-yl)methyl)-2-(hydroxymethyl)-5-methoxy-4-(4-(3,4,5-trifluorophenyl)-1H-1,2,3-triazol-1-yl)tetrahydro-2H-pyran-3-ol] | 2200 | 440
4 | CO[C@@H]1[C@@H](n2cc(-c3ccc(Cl)c(F)c3F)nn2)[C@@H](O)[C@@H](CO)O[C@@H]1CC1=NO[C@]2(CC[C@H](C#N)CC2)C1 [Example 1.61, (5r,8R)-3-(((2R,3R,4S,5R,6R)-4-(4-(4-chloro-2,3-difluorophenyl)-1H-1,2,3-triazol-1-yl)-5-hydroxy-6-(hydroxymethyl)-3-methoxytetrahydro-2H-pyran-2-yl)methyl)-1-oxa-2-azaspiro[4.5]dec-2-ene-8-carbonitrile] | 460 | 49
5 | CO[C@@H]1[C@@H](n2cc(-c3ccc(C)c(F)c3F)nn2)[C@@H](O)[C@@H](CO)O[C@@H]1CN1CC2(CCCCC2)NC1=O [Example 4.01, 3-(((2R,3R,4S,5R,6R)-4-(4-(2,3-difluoro-4-methylphenyl)-1H-1,2,3-triazol-1-yl)-5-hydroxy-6-(hydroxymethyl)-3-methoxytetrahydro-2H-pyran-2-yl)methyl)-1,3-diazaspiro[4.5]decan-2-one] | 1300 | –
6 | OC[C@H]1O[C@H](CC2=NOC3(CCCCC3)C2)[C@H](OCC(F)F)[C@@H](n2cc(-c3cc(F)c(F)c(F)c3)nn2)[C@H]1O [Example 1.67, (2R,3R,4S,5R,6R)-6-((1-oxa-2-azaspiro[4.5]dec-2-en-3-yl)methyl)-5-(2,2-difluoroethoxy)-2-(hydroxymethyl)-4-(4-(3,4,5-trifluorophenyl)-1H-1,2,3-triazol-1-yl)tetrahydro-2H-pyran-3-ol] | 2900 | –

Second part, the molecule after the results:

Row | IC50 (human Gal-1 (hGal-1)) [nM] | IC50 (human Gal-3 (hGal-3)) [nM] | Compound
7 | 2000 | 89 | CO[C@@H]1[C@@H](n2cc(-c3cc(F)c(F)c(F)c3)nn2)[C@@H](O)[C@@H](CO)O[C@@H]1CC1=NO[C@]2(CC[C@H](C#N)CC2)C1 [Example 1.40, (5r,8R)-3-(((2R,3R,4S,5R,6R)-5-hydroxy-6-(hydroxymethyl)-3-methoxy-4-(4-(3,4,5-trifluorophenyl)-1H-1,2,3-triazol-1-yl)tetrahydro-2H-pyran-2-yl)methyl)-1-oxa-2-azaspiro[4.5]dec-2-ene-8-carbonitrile]
8 | 3100 | – | CO[C@@H]1[C@@H](n2cc(-c3cc(F)c(F)c(F)c3)nn2)[C@@H](O)[C@@H](CO)O[C@@H]1CC1=NOC2(CCC(C)CC2)C1 (stereo partly drawn) [Example 1.30, (2R,3R,4S,5R,6R)-2-(hydroxymethyl)-5-methoxy-6-((8-methyl-1-oxa-2-azaspiro[4.5]dec-2-en-3-yl)methyl)-4-(4-(3,4,5-trifluorophenyl)-1H-1,2,3-triazol-1-yl)tetrahydro-2H-pyran-3-ol]
